Key:
Smad2 [1] = assay: Smad2 nuclear localization (immunofluorescent staining, confocal) in HFL1 cells; type: cell-based, human; settings: TGFβ1 10 ng/mL; for nuclear localization of Smad2 due to TGFβ1 (PKC inhibitors): GF109203X 10 μM, Rottlerin 1 μM, GO06976 1 μM
Procedure: For immunostaining of Smad and phosphorylated Smad, ribonuclease A (RNase, Worthington Biochemical) (200 μg/mL, room temperature, 30 minutes) and propidium iodide (PI, Cayman Chemical) (20 μg/mL, room temperature, 30 minutes) were applied to stain the nucleus, and the stained images were observed using a confocal microscope (FV500 manufactured by Olympus).
When localization of Smad2/3 was observed, on the other hand, Smad2/3 accumulated in the nucleus in 3 hours after the single stimulation of TGFβ1 (10 ng/mL).

Smad2 [2] = assay: Smad2 phosphorylation (western blot) in HFL1 cells; type: cell-based, human; settings: for phosphorylation level of Smad2 due to TGFβ1 treatment (PKC inhibitors): GF109203X 10 μM, Rottlerin 1 μM; for phosphorylation level of Smad2 due to TGFβ1 treatment (PKC inhibitors) / phosphorylation level of Smad2 (ROCK pathway): TGFβ1 10 ng/mL; for phosphorylation level of Smad2 (ROCK pathway): Y27632 20 μM, Cytochalasin B 2 μM
Procedure: HFL1 cells were inoculated onto a six-well plate by 1.0×10^5 cells/well, and then cultured in 2.0 mL of DMEM containing 10% FBS, to achieve 70% confluence. The cells were washed using Hanks' balanced salt solution (HBSS) containing 0.1% bovine serum albumin (BSA) (4.2 mM NaHCO3, 137 mM NaCl, 5.36 mM KCl, 0.4 mM MgSO4.7H2O, 0.34 mM Na2HPO4.12H2O, 5.55 mM glucose, 0.44 mM KH2PO4, 0.72 mM CaCl2.H2O, pH=7.4), and then cultured in a DMEM containing 0.1% BSA for 48 hours without serum.
Thereafter, the medium was replaced by a DMEM containing 0.1% BSA, and stimulation was given for a specified period using each reagent (each inhibitor was applied 30 minutes before the stimulant), after which the cells were collected on ice using 100 μL of RIPA buffer (150 mM NaCl, 50 mM Tris-HCl, 5 mM EDTA, 5 mM NaF, 10 mM sodium pyrophosphate dibasic, 1% Nonidet P-40, 0.1% sodium dodecyl sulfate, 0.5% sodium deoxycholate, pH 8.0) containing 10 μg/mL aprotinin, 10 μg/mL leupeptin, and phenyl methyl sulfonyl fluoride (PMSF) as a protease inhibitor.
The cells were crushed according to the vortex method, centrifuged under the conditions of 15000 rpm and 4° C. for 30 minutes, and the supernatant was taken as a sample. Quantitative determination of protein was performed according to the Bradford method, and a specified amount of protein was separated by SDS-polyacrylic amide gel electrophoresis. The protein was transferred onto a polyvinylidene difluoride (PVDF) film, blocked for 1 hour at room temperature, with a primary antibody applied overnight at 4° C., and a secondary antibody applied for 1 hour at room temperature.
Thereafter, the PVDF film was soaked in an ECL solution and fluorometric detection was performed using an image capture/analysis system (ChemiDocMP System manufactured by Bio-Rad). The detected bands were converted to numerical values using image processing software (ImageJ).

αSMA = αSMA expression (western blot) in TGFβ1-stimulated HFL1 cells; type: cell-based, human; settings: for increase in the αSMA expression level due to TGFβ1 (PKC inhibitors): GF109203X 10 μM, Rottlerin 1 μM, GO06976 0.5 μM and 1.0 μM, 30 minutes before TGFβ1 10 ng/mL; for αSMA expression level recovered, relative to the level when TGFβ1 alone was applied: used together with PPMP (3 μM), lactosylceramide 10 μM
Procedure: Human pulmonary fibroblast (HFL1) (ATCC CCL-153) cells were cultured under the conditions of 95% air-5% CO2 and 37° C., using a Dulbecco's Modified Eagle Medium (DMEM) containing 10% fetal bovine serum (FBS), 100 μg/mL streptomycin, and 66.7 μg/mL penicillin.
How an increase in lactosylceramide synthesis activity due to TGFβ1 affects the fibrosing of tissues was examined based on the expression level of αSMA, which is a fibrosing marker protein.

PKCδ = assay: Translocation of PKCδ into the cellular membrane in HFL1 cells; type: cell-based, human
Procedure: HFL1 cells were inoculated onto a 3.5-cm glass-bottom dish by 1.0×10^4 cells/dish, and then cultured in 2.0 mL of DMEM containing 10% FBS, to achieve 70% confluence. The cells were washed in HBSS containing 0.1% BSA, and then cultured in DMEM containing 0.1% BSA for 48 hours without serum.
Thereafter, the medium was replaced by a DMEM containing 0.1% BSA, and stimulation was given for a specified period using each reagent (each inhibitor was applied 30 minutes before the stimulant), after which each sample was fixed with 4% paraformaldehyde (PFA) at 4° C. for 15 minutes. Thereafter, as deemed appropriate, the sample was permeabilized (0.3% saponin, room temperature, 1 hour) and blocked (3% BSA, room temperature, 1 hour), with a primary antibody applied overnight at 4° C., and a secondary antibody applied for 1 hour at room temperature. For immunostaining of Smad and phosphorylated Smad, ribonuclease A (RNase, Worthington Biochemical) (200 μg/mL, room temperature, 30 minutes) and propidium iodide (PI, Cayman Chemical) (20 μg/mL, room temperature, 30 minutes) were applied to stain the nucleus, and the stained images were observed using a confocal microscope (FV500 manufactured by Olympus).
In general, activation of PKC is observed in the form of its translocation into the cellular membrane; accordingly, involvement of lactosylceramide was examined using the translocation of PKCδ into the cellular membrane as an indicator.

[3] = test system: idiopathic pulmonary fibrosis; settings: patients suffering from idiopathic pulmonary fibrosis; Non-patent Literature 2; cited from earlier work

In the case of `CN(C)CCCn1cc(C2=C(c3c[nH]c4ccccc34)C(=O)NC2=O)c2ccccc21` [GF109203X], the “nuclear localization of Smad2 due to TGFβ1 (PKC inhibitors)” value (“nuclear localization … (PKC inhibitors)” below) (Smad2 [1]) is reported as “suppressed significantly”, the “phosphorylation level of Smad2 due to TGFβ1 treatment (PKC inhibitors)” value (Smad2 [2]) is reported as “no change was observed” and the “increase in the αSMA expression level due to TGFβ1 (PKC inhibitors)” value (shortened to “increase … (PKC inhibitors)”) (αSMA) is reported as “suppressed significantly”.

With lactosylceramide the “accumulation of Smad2 in the nucleus, combined use with PPMP” value (Smad2 [1]; lactosylceramide 10 μM combined with PPMP) was “led to a recovery of the suppression action due to PPMP, and Smad2 accumulated in the nucleus”, the “phosphorylation of Smad2 by the substance alone” value (Smad2 [2]; lactosylceramide 10 μM alone, no TGFβ1) was “did not cause phosphorylation of Smad2” and the “time the localization of PKCδ on the cellular membrane was sustained” value (PKCδ; lactosylceramide 10 μM alone) was “at least 30 minutes”. The “translocation of PKCδ into the cellular membrane by the substance alone” value (PKCδ; lactosylceramide 10 μM alone, five minutes after the stimulation) was “translocation of PKCδ into the cellular membrane was observed”, the “recovery of the αSMA expression level suppression action” value (αSMA; lactosylceramide 10 μM in combined use with PPMP or NB-DNJ, TGFβ1 10 ng/mL) was “led to a recovery of the αSMA expression level suppression action” and the “αSMA expression level recovered, relative to the level when TGFβ1 alone was applied” value (αSMA; TGFβ1 10 ng/mL) was “approx. 95%”.

In the case of `C[C@@H](N)[C@H]1CC[C@H](C(=O)Nc2ccncc2)CC1` [Y27632], the “phosphorylation level of Smad2 (ROCK pathway)” value (Smad2 [2]) is reported as “the phosphorylation level did not change”.

With glucosylceramide the “αSMA expression level recovered, relative to the level when TGFβ1 alone was applied” value (αSMA; TGFβ1 10 ng/mL) was “approx. 80%”.

For `Cc1ccc(=O)n(-c2ccccc2)c1` [pirfenidone], the “forced vital capacities of patients” value [3] is listed as “improve the forced vital capacities” and the “survival periods of patients” value [3] is listed as “cannot extend the survival periods”.

For `Cn1c2ccccc2c2c3c(c4c5ccccc5n(CCC#N)c4c21)CNC3=O` [GO06976], the “nuclear localization … (PKC inhibitors)” value (Smad2 [1]) was “did not change” and the “increase … (PKC inhibitors)” value (αSMA) was “did not suppress the increase in the αSMA expression level”.

For `C=C1[C@@H](C)[C@H]2[C@H](Cc3ccccc3)NC(=O)[C@]23OC(=O)/C=C/[C@H](O)CCC[C@@H](C)C/C=C/[C@H]3[C@@H]1O` [Cytochalasin B], the “phosphorylation level of Smad2 (ROCK pathway)” value (Smad2 [2]) was “the phosphorylation level did not change”.

In the case of `CCCCCCCCCCCCCC(=O)O[C@@H]1[C@@H](C)[C@@]2(O)[C@@H](C=C(CO)C[C@]3(O)C(=O)C(C)=C[C@@H]23)[C@@H]2C(C)(C)[C@]12OC(C)=O` [PMA, phorbol myristate acetate], the “increase in the αSMA expression level due to TGFβ1 (PKC down-regulation)” value (αSMA; PMA 100 nM overnight treatment, TGFβ1 10 ng/mL) is reported as “suppressed the increase in the αSMA expression level”.

For `COC(=O)c1ccc2c(c1)NC(=O)/C2=C(\Nc1ccc(N(C)C(=O)CN2CCN(C)CC2)cc1)c1ccccc1` [nintedanib], the “forced vital capacities of patients” value [3] is given as “improve the forced vital capacities” and the “survival periods of patients” value [3] is given as “cannot extend the survival periods”.

For `CC(=O)c1c(O)c(C)c(O)c(Cc2c(O)c3c(c(C(=O)/C=C/c4ccccc4)c2O)OC(C)(C)C=C3)c1O` [Rottlerin], the “nuclear localization … (PKC inhibitors)” value (Smad2 [1]) was “suppressed significantly”, the “phosphorylation level of Smad2 due to TGFβ1 treatment (PKC inhibitors)” value (Smad2 [2]) was “no change was observed” and the “translocation of PKCδ into the cellular membrane due to TGFβ1” value (PKCδ; PPMP 3 μM, Rottlerin 1 μM applied beforehand, two hours after TGFβ1 10 ng/mL) was “translocation of PKCδ into the cellular membrane was suppressed”. For the same molecule, the “increase … (PKC inhibitors)” value (αSMA) was “suppressed significantly”.

Source: patent US20200061038A1, “THERAPEUTIC AGENT FOR FIBROSIS AND INHIBITOR OF NUCLEAR TRANSLOCATION OF PHOSPHORYLATED SMAD” (NATIONAL UNIVERSITY CORPORATION CHIBA UNIVERSITY, priority 2016, published 2020)
